Experimental findings from the supplement of paper PMC11061612 are described below.

Holding throughout (assay): combination Emax (second highest fraction inhibited in the dose matrix, 72 h); higher = more inhibition; extreme values may be limits of the assay
The test system of test [1] is ATN-1 (T-Lymphoblastic Leukemia). An outline of the steps:
(§1)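 Cell lines grown in DMEM/F12 or RPMI with 10% FBS were plated in 1536-well plates and held 24 hours at 37°C, 5% CO2 before 72 hours of exposure to two-drug dose matrices, with DMSO typically at 0.2%. CellTiter-Glo 2.0 luminescence gave viability, which was converted to inhibition. Vehicle wells were set to 0 and blank wells to 1. Combination Emax is the second-highest inhibition in the matrix, and Bliss excess is the observed combination effect minus the expected EA + EB − EA·EB, where EA and EB are the single-agent effects.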

A further test deals with GCIY (Gastric Carcinoma). An outline of the steps: as §1
Test [2] deals with OCI-M1 (Acute Myeloid Leukemia). The procedure, abridged: as §1
The test system of test [3] is JJN-3 (Plasma Cell Myeloma). The procedure, abridged:
as §1

Test [4] has as its system L-363 (Plasma Cell Myeloma). The procedure, abridged: as §1
Test [5] deals with NCI-H2023 (Non-Small Cell Lung Carcinoma). An outline of the steps: as §1
Test [6] concerns TK (B-Cell Non-Hodgkin's Lymphoma). An outline of the steps:
as §1

Test [7] has as its system NCI-H1975 (Lung Adenocarcinoma). An outline of the steps: as §1
In test [8] the test system is IGROV-1 (Ovarian Carcinoma). The procedure, abridged: as §1
A further test relates to DK-MG (Glioblastoma). An outline of the steps: as §1
In test [9] the test system is RS4-11 (B-Lymphoblastic Leukemia). An outline of the steps:
as §1

In test [10] the test system is C2BBe1 (Colorectal Carcinoma). An outline of the steps:
as §1

The subject of test [11] is JURL-MK1 (Chronic Myelogenous Leukemia). An outline of the steps: as §1
For test [12], the system named is MRK-nu-1 (Breast Carcinoma). An outline of the steps: as §1
The test system of test [13] is NTERA-2-cl-D1 (Other Solid Carcinomas). An outline of the steps: as §1
Test [14] deals with NCI-H2009 (Lung Adenocarcinoma). An outline of the steps: as §1
Test [15] deals with NCI-H1048 (Small Cell Lung Carcinoma). The procedure, abridged: as §1
The test system of test [16] is HT-3 (Cervical Carcinoma). The procedure, abridged: as §1
Test [17] relates to MDA-MB-175-VII (Breast Carcinoma). The procedure, abridged:
as §1

The test system of the next test is C32 (Melanoma). The procedure, abridged:
as §1

Regarding `CC1(C)CCC(CN2CCN(c3ccc(C(=O)NS(=O)(=O)c4ccc(NCC5CCOCC5)c([N+](=O)[O-])c4)c(Oc4cnc5[nH]ccc5c4)c3)CC2)=C(c2ccc(Cl)cc2)C1` [Venetoclax] + C[C@@H](Nc1cc(F)cc(F)c1)c1cc(C(=O)N(C)C)cc2c(=O)cc(N3CCOCC3)oc12 [AZD8186] (first compound max 1 µM, 7x7, partner max 3 µM), the “combination Emax” value is 0.616 in test [1]; 0.641 with GCIY (Gastric Carcinoma); 0.0849 in test [2]; 0.232 in [3]; 0.805 in test [4]; 0.416 in test [5]. Besides, the “combination Emax” value in test [6] was found to be 1; in test [7], 0.22; in [8], 0.668; in the test on DK-MG (Glioblastoma) it was 0.372; in test [9], 1; in test [10], 0.318. Further, the “combination Emax” value in test [11] is 0.095; in test [12], 0.175; in test [13] it was 0.805; in [14], 0.445; in [15] it was 0.504; in test [16] it was 0.0586. Besides, the “combination Emax” value in test [17] came to 0.315; with C32 (Melanoma), 0.26.

As for `C[C@@H]1COCCN1c1cc(C2([S@](C)(=N)=O)CC2)nc(-c2ccnc3[nH]ccc23)n1` [AZD6738] + O=C(c1cc(Cc2n[nH]c(=O)c3ccccc23)ccc1F)N1CCN(C(=O)C2CC2)CC1 [Olaparib] (first compound max 10 µM, 7x7, partner max 10 µM), the “combination Emax” value in test [1] was found to be 1; in the test with GCIY (Gastric Carcinoma) it was 0.811; in [2], 0.982; in test [3] it was 0.584; in [4], 0.854; in test [5], 0.846. Moreover, the “combination Emax” value in [6] was 0.878; in test [7], 0.354; in test [8], 0.704; in the test with DK-MG (Glioblastoma) it was 0.316; in test [9], 0.979; in [10], 0.331. The “combination Emax” value in test [11] came out at 0.996; in [12], 0.621; in test [13], 0.894; in [14] it was 0.478; in [15], 0.786; in test [16], 0.697. Further, the figures for the “combination Emax” value (in test [17]; with C32 (Melanoma)) were 0.352 and 0.694, respectively.

For the molecule `CS(=O)(=O)CCNCc1ccc(-c2ccc3ncnc(Nc4ccc(OCc5cccc(F)c5)c(Cl)c4)c3c2)o1` [Lapatinib] + C[C@@H](Oc1cc(-c2cnn(C3CCNCC3)c2)cnc1N)c1c(Cl)ccc(F)c1Cl [Crizotinib] (first compound max 10 µM, 7x7, partner max 10 µM), the “combination Emax” value in test [1] was 0.988; in the test on GCIY (Gastric Carcinoma), 0.882; in test [2], 0.996; in test [3], 0.902; in test [4], 0.932; in test [5], 0.687. Also, the “combination Emax” value in test [6] was 0.701; in test [7], 0.631; in test [8] it was 1; in the test on DK-MG (Glioblastoma) it was 0.925; in test [9], 0.883; in [10] it was 0.745. For the same molecule, the “combination Emax” value stood at 1 in test [11]; 0.477 in test [12]; 0.957 in test [13]; 0.732 in test [14]; 0.525 in [15]; 0.234 in [16]. In addition, the “combination Emax” value in test [17] was found to be 1; in the test with C32 (Melanoma), 0.7.

On to `COc1nnc2ccc(N3CCC(c4ccc(OCCN5CCN(C)C(=O)[C@H]5C)cc4)CC3)nn12` [AZD5153] + Cn1cnc2c(F)c(Nc3ccc(Br)cc3Cl)c(C(=O)NOCCO)cc21 [Selumetinib] (first compound max 1 µM, 7x7, partner max 10 µM), for which the “combination Emax” value in test [1] turned out to be 0.508; in the test with GCIY (Gastric Carcinoma) it was 0.598; in [2], 1; in test [3], 0.955; in [4], 0.709; in test [5], 0.316. Also, the “combination Emax” value stood at 0.232 in test [6]; 0.72 in test [7]; 0.736 in [8]; 0.652 in the test with DK-MG (Glioblastoma); 0.593 in test [9]; 0.701 in [10]. Also, the “combination Emax” value in test [11] is 1; in test [12], 0.306; in test [13], 0.712; in test [14], 0.716; in [15], 0.449; in test [16], 0.399. Besides, the “combination Emax” value in [17] came to 0.493; in the test with C32 (Melanoma) it was 1.

As to `CC(=O)c1c(C)c2cnc(Nc3ccc(N4CCNCC4)cn3)nc2n(C2CCCC2)c1=O` [Palbociclib] + CC1(C)CCC(CN2CCN(c3ccc(C(=O)NS(=O)(=O)c4ccc(NCC5CCOCC5)c([N+](=O)[O-])c4)c(Oc4cnc5[nH]ccc5c4)c3)CC2)=C(c2ccc(Cl)cc2)C1 [Venetoclax] (first compound max 10 µM, 7x7, partner max 1 µM), the “combination Emax” value in test [1] turned out to be 0.608; with GCIY (Gastric Carcinoma), 0.17; in test [2], 0.499; in test [3], 0.261; in [4] it was 0.208; in test [5], 0.348. In addition, the “combination Emax” value in test [6] was 0.975; in test [7], 0.423; in [8], 0.537; in the test with DK-MG (Glioblastoma), 0.286; in [9], 1; in [10], 0.111. The “combination Emax” value in test [11] amounted to 0.661; in test [12], 0.37; in test [13], 0.134; in test [14], 0.0582; in [15], 0.287; in test [16], 0.116. Further, the “combination Emax” value in test [17] worked out at 0.171; in the test on C32 (Melanoma), 0.0845.

`Cc1c2c(nn1C)CSCc1cc(n(C)n1)CSc1cc(c3ccccc3c1)OCCCc1c(C(=O)O)n(C)c3c-2c(Cl)ccc13` [AZD5991] + C=CCn1c(=O)c2cnc(Nc3ccc(N4CCN(C)CC4)cc3)nc2n1-c1cccc(C(C)(C)O)n1 [AZD1775] (first compound max 1 µM, partner max 1 µM): the “combination Emax” value in [1] worked out at 1; with GCIY (Gastric Carcinoma) it was 0.545; in [2] it was 0.921; in [3], 1; in [4], 1; in test [5] it was 0.603. The “combination Emax” value amounted to 0.927 in test [6]; 0.677 in test [7]; 0.88 in [8]; 0.821 with DK-MG (Glioblastoma); 0.995 in test [9]; 0.341 in [10]. Further, the “combination Emax” value amounted to 0.999 in [11]; 1 in [12]; 0.82 in test [13]; 0.75 in test [14]; 1 in test [15]; 0.631 in [16]. Besides, the figures for the “combination Emax” value (in [17]; in the test with C32 (Melanoma)) were 0.216 and 0.568, respectively.
